Reference: PMC5072635 (PLoS ONE, 2016)
Converted amounts (≈) assume the structure as drawn. “And” between values parts separate entries of the source, which are not always exact repeats. Identical values can stand only once. Like-named read-outs stand apart in the source and are kept apart here. One block for each compound: values may come before it.

Experiments:
[1] = target: human serum albumin (HSA) (Homo sapiens, UniProt P02768); experiment: Isothermal titration calorimetry with human serum albumin; conditions: for ΔH: room temperature, pH 7.4
human serum albumin (HSA), sequence (P02768 25-609): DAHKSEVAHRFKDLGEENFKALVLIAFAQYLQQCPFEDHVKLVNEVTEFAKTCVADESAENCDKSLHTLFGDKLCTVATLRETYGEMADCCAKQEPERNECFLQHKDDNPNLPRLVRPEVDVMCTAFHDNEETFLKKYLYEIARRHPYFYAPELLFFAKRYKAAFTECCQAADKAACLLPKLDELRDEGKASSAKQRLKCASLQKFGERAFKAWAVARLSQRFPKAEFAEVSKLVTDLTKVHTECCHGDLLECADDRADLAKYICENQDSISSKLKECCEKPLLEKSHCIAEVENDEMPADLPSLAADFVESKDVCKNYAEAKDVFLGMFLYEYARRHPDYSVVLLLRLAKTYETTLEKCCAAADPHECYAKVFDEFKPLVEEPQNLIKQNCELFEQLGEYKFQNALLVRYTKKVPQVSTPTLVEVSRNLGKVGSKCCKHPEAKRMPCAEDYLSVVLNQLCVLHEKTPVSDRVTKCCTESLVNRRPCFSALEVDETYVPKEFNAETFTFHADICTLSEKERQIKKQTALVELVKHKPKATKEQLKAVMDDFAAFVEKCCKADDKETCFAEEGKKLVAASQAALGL
Description: (§1) All samples were degassed, and ITC was performed at room temperature as previously described using MicroCal VP-ITC calorimeter. […] The data were analyzed using a single-site binding model provided in the ITC analysis software package. […] The values for ΔH, Kd and stoichiometry averaged ± standard deviation. […] The values for stoichiometry and binding affinity were derived from the ITC experiments.
150 μM of ethanol solubilized GML was placed in the syringe and injected into the sample chamber twenty one times with 180 seconds interval between injections.

IL-10 production = experiment: ELISA of TCR-induced IL-10 production by APBTs; format: cell-based, human
Description: (§2) The cells were then stimulated with plate-bound 2 μg/ml of anti-CD3 (Biolegend) for 24 hours. Protein concentrations of IL-2, IFN-γ, IL-10, and TNF-α in the media supernatants were measured by standard TMB ELISA.
(§3) Cells were plated on 2 μg/ml anti-CD3 coated plates for 24 hours. Extracellular cytokine production for (A) IFN-γ, (B) IL-2, (C) IL-10, or (D) TNFα was measured by ELISA in 3 independent experiments with different human donors.

IL-2 production = experiment: ELISA of TCR-induced IL-2 production by APBTs; format: cell-based, human
Description: as §2
(§4) Cells were plated on 2 μg/ml anti-CD3 coated plates for 24 hours. Extracellular cytokine production for (A) IFN-γ, (B) IL-2, (C) IL-10, or (D) TNFα was measured by ELISA in 3 independent experiments with different human donors. To statistically confirm that GML is suppressing cytokine production without serum, Student t’s test was done by comparing EtOH treated groups with GML treated groups under the same serum free environment, indicated by the black bars, with # denoting p<0.05.

[2] = target: T1, bovine serum albumin (BSA) (Bos taurus, UniProt P02769); experiment: Isothermal titration calorimetry with bovine serum albumin; format: binding
T1 construct: purchased Sigma Aldrich
T1 sequence (P02769 25-607): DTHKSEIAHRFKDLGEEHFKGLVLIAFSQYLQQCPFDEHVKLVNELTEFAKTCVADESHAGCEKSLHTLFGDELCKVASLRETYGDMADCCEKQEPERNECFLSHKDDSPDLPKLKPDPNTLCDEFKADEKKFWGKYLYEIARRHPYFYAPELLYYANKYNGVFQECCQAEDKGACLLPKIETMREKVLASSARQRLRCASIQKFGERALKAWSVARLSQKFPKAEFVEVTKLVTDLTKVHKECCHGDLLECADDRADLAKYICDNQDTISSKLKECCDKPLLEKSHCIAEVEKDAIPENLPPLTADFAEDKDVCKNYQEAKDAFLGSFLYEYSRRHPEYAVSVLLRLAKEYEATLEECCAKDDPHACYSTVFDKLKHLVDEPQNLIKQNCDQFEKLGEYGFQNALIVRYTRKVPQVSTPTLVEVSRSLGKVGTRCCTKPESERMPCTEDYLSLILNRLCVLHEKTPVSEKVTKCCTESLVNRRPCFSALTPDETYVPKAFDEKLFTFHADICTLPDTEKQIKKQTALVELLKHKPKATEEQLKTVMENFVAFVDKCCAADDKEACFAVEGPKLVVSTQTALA
Description: (§5) Supplementary file pone.0165083.s001.pdf: S1 Fig ITC curves of GML with various mammalian albumins. 150μM of GML was injected incrementally into the sample chamber containing 5μM of mammalian albumins. […] (PDF) Click here for additional data file.

[3] = test system: AKT phosphorylation at threonine 308 and serine 473; experiment: TCR-induced AKT phosphorylation by immunoblotting in APBTs; format: cell-based, human
Description: The cells were then incubated on ice with 2 μg/ml anti-CD3 for 30 minutes. […] Cells were then lysed with 2X sample buffer, heated to 95°C, and sonicated.
Cell lysates were separated by polyacrylamide gel electrophoresis and transferred to PVDF. The membranes were blocked in 0.5X SEA BLOCK blocking buffer diluted in PBS. Primary antibodies were incubated overnight at 4°C. Secondary antibodies were incubated with the membrane for 30 minutes at room temperature and then imaged using Licor Odyssey (Lincoln, NE, USA). At least four independent replicates with different human donors were performed for each experiment. Immunoblot band intensity was quantified using Odyssey’s v3.0 software with the intensity of the phospho-specific antibody normalized to the intensity of the GAPDH antibody. To minimize variability between human donors, band intensities were further normalized to maximal band intensity of ethanol vehicle control. The following antibodies were used for immunoblotting: AKT pThr 308 (Cell Signaling), AKT pS473 (Invitrogen), GAPDH (Meridian Life Sciences), and IRDye 800CW or IRDye680-conjugated secondary antibodies (Thermo Scientific).
Cells were stimulated by crosslinking 2 μg/ml of anti-CD3 for various times. Phosphorylation of AKT at threonine 308 and serine 473 were assessed by immunoblotting.

LAT pY226 microclusters = experiment: TIRF microscopy of LAT microcluster formation in APBTs; format: cell-based, human
Description: (§6) APBTs were stimulated in the presence of 0.1% ethanol control or 10 μg/ml GML with plate-bound anti-CD3 on glass coverslips, fixed with 4% paraformaldehyde, permeabilized with 0.25% Triton-X, and stained as described below. To detect microcluster formation of TCR signaling proteins, antibodies specific for LAT pY226 (BD Pharmingen), PLC-γ pY783 (Cell Signaling, and total AKT (Cell signaling) were incubated with fixed and permeabilized cells overnight for 4°C. Subsequently, conjugated secondary antibodies Dylight Goat anti-rabbit IgG and DyLight 568 Goat anti-rabbit IgG (Biolegend) as well as Alexa Fluor 488 goat anti-mouse IgG1 (Thermo Fisher) were incubated with the cells at room temperature for 2 hours. All images were captured by the Leica AM TIRF MC system using 100x magnification oil immersion objective lens at room temperature at the University of Iowa Central Microscopy Research Facility.
(§7) TIRF microscopy images were processed and analyzed using ImageJ. Quantification of membrane clustering was done by measuring mean pixel intensity in the […] of cells for 60 cells total from at least 3 independent experiments. Similar quantification methods have been used in other published reports.
(§8) (A). […] Pixel intensities of median axis of each cell in images obtained in (A) were quantified and averaged using ImageJ. […]

HSA = test system: HSA
Description: as §1
While the presence of other ligands would increase the proportion of free floating GML unbound to albumin, we assumed there were no other albumin ligands present in the system to simplify our calculations.
(PDF) Click here for additional data file.

[4] = test system: PLC-γ1 pY783 microclusters; experiment: TIRF microscopy of PLC-γ1 microcluster formation in APBTs; format: cell-based, human
Description: as §6, §7, §8

TNF-α production = experiment: ELISA of TCR-induced TNF-α production by APBTs; format: cell-based, human
Description: as §2, §4

[5] = target: T2, mouse serum albumin (MSA) (Mus musculus, UniProt P07724); experiment: Isothermal titration calorimetry with mouse serum albumin; format: binding
T2 construct: purchased Sigma Aldrich
T2 sequence (P07724 25-608): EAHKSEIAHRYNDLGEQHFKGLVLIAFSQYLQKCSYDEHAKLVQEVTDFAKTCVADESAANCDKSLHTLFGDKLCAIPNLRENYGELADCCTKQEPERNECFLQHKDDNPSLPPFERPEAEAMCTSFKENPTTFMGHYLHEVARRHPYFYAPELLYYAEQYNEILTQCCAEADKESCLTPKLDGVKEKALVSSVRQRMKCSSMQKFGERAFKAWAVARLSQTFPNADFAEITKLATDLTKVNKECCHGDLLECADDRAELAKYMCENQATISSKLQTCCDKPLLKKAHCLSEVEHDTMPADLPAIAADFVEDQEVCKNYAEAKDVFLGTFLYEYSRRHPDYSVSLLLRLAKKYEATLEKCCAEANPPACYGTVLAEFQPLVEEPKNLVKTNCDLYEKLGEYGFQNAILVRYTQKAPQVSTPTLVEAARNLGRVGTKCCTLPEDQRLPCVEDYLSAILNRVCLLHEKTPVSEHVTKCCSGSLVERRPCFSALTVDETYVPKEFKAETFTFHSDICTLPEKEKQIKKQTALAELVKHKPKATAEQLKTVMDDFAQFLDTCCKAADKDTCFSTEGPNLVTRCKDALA
Description: as §5

IFN-γ production = experiment: ELISA of TCR-induced IFN-γ production by APBTs; format: cell-based, human
Description: as §2, §3

pig serum albumin (PSA) = target: T3, pig serum albumin (PSA) (Sus scrofa, UniProt P08835); experiment: Isothermal titration calorimetry with pig serum albumin; format: binding
T3 construct: purchased Sigma Aldrich
T3 sequence (P08835 25-607): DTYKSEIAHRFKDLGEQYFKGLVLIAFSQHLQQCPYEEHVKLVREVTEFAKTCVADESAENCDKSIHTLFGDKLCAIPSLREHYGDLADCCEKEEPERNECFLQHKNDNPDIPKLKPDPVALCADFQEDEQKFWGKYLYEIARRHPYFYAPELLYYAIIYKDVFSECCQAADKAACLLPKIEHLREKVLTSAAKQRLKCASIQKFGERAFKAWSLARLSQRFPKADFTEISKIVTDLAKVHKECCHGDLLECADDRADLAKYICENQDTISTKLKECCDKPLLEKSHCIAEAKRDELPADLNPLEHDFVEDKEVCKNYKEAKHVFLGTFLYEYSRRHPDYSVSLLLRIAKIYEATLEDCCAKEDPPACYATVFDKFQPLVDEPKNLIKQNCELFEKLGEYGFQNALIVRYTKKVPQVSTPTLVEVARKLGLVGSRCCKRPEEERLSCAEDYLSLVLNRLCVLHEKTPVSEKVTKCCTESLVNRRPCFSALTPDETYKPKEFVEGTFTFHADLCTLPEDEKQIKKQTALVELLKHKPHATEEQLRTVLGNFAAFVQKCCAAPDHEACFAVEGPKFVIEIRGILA
Description: as §5

[6] = target: T4, rabbit serum albumin (RSA) (Oryctolagus cuniculus, UniProt P49065); experiment: Isothermal titration calorimetry with rabbit serum albumin; format: binding
T4 construct: purchased Sigma Aldrich
T4 sequence (P49065 25-608): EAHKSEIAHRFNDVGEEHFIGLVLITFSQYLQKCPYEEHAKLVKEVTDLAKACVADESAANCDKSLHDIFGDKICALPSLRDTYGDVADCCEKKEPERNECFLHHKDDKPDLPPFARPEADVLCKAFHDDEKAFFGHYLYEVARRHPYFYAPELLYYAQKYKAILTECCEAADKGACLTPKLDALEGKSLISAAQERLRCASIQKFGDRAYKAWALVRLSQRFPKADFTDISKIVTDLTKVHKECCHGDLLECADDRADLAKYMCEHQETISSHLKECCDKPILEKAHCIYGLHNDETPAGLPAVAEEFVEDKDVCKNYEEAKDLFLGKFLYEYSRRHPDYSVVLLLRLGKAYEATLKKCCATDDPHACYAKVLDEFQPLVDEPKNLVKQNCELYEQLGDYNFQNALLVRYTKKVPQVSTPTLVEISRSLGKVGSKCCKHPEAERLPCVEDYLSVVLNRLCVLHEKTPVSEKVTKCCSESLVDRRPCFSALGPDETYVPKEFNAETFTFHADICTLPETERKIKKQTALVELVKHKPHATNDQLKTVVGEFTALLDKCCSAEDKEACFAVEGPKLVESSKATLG
Description: as §5

[7] = cited from earlier work
total AKT microclusters = experiment: TIRF microscopy of AKT microcluster formation in APBTs; format: cell-based, human
Description: as §6, §7, §8

[8] = GML doses 10 μg/ml or greater, absence of serum albumin, anti-CD3 24 hours
[9] = 10 μg/ml GML, serum free media, significant at 5 and 15 minutes post stimulation
[10] = ITC, single-site model, 5 μM albumin, 150 μM ligand

- Kd [1]: > 50 µM
- binding reaction with HSA ([1]; ITC, 5 μM HSA, 150 μM glycerol): did not have measurable binding reaction
Structure (SMILES): OCC(O)CO [Glycerol, glycerol]

Structure (SMILES): CCCCCCCCCCCC(=O)OCC(O)CO (stereo not shown) [GML, Glycerol monolaurate]
- IL-10 production vs control APBTs (IL-10 production; 10 μg/ml GML, all doses of HSA): significantly increased
- IL-10 production vs GML in serum free media (IL-10 production; 20 μg/ml GML, all concentrations of HSA tested): did not restore
- IL-10 production vs ethanol control (IL-10 production; [8]): significantly reduced
- IL-2 production vs GML in serum free media (IL-2 production; 10 μg/ml GML, 2% and 1% HSA): significantly increased
- IL-2 production vs GML in serum free conditions (IL-2 production; 20 μg/ml GML, all HSA doses): did not have significantly increased
- IL-2 production vs ethanol control (IL-2 production; [8]): significantly reduced
- Kd [2]: 2.2 ± 1.1 µM
- ΔH ([2]; ITC, single-site model, BSA): -4.5 ± 0.77 kcal/mol
- AKT T308 phosphorylation vs GML alone ([3]; 10 μg/ml GML in 1% HSA, 5 and 15 minutes post stimulation): significantly increased
- AKT S473 phosphorylation vs GML alone ([3]; 10 μg/ml GML in 1% HSA, 15 minutes post stimulation): significantly increased
- phosphorylation of both AKT residues (T308, S473) post stimulation vs GML treated cells ([3]; 10 μg/ml GML in 1% HSA, below levels in ethanol control): modest increase
- AKT S473 phosphorylation vs ethanol control [3, 9]: drastically suppressed
- AKT T308 phosphorylation vs ethanol control [3, 9]: drastically suppressed
- LAT microcluster formation in GML treated cells (LAT pY226 microclusters; 10 μg/ml GML in 1% HSA, to levels similar to ethanol and HSA controls): significantly increased
- LAT clustering at the membrane (LAT pY226 microclusters; 10 μg/ml GML, serum free media): drastically decreased
- GML molecules bound to HSA (HSA; 10 and 20 μg/ml GML, all HSA concentrations, no other ligands assumed): > 90%
- GML bound to albumin (HSA; low-albumin sites (urine, vaginal secretions, CSF etc.), GML doses less than 20 μg/ml): mostly bound
- albumin bound to GML (HSA; lymphatic fluid, albumin 40% to 90% of the serum concentration): > 99%
- GML molecules bound to albumin (HSA; plasma albumin 35 to 50 g/L, concentrations where GML is soluble, Kd 1.4 μM): > 99%
- concentration of GML-HSA complexes relative to free GML molecules (HSA; skin wound exudate albumin 10 to 30 g/L, GML doses between 500 to 5000 μg/ml): within one order of magnitude
- GML molecules bound to HSA (HSA; skin wound exudate albumin 10 to 30 g/L, GML doses greater than 5000 μg/ml): < 2%
- GML bound to HSA (HSA; skin wound exudate albumin 10 to 30 g/L, GML doses less than 500 μg/ml): > 90%
- PLC-γ1 clustering ([4]; 10 μg/ml GML alone): inhibits
- PLC-γ1 clustering in GML treated cells ([4]; 10 μg/ml GML with 1% HSA): relieves this inhibition
- TNF-α production vs GML in serum free media (TNF-α production; 10 and 20 μg/ml GML, all concentrations of HSA): significantly increased
- TNFα production vs ethanol control (TNF-α production; [8]): significantly reduced
- Kd [5]: 6.3 ± 2.7 µM
- ΔH ([5]; ITC, single-site model, MSA): -4.9 ± 1.1 kcal/mol
- IFN-γ production vs GML treatment alone (IFN-γ production; 1% or 0.2% HSA, 10 μg/ml GML): significant restoration
- IFN-γ production vs GML treatment alone (IFN-γ production; 2% HSA, both GML doses (10 and 20 μg/ml)): significantly restored
- IFNγ production vs ethanol control (IFN-γ production; [8]): significantly reduced
- Kd (pig serum albumin (PSA)): 4.5 ± 1.6 µM
- ΔH (pig serum albumin (PSA); ITC, single-site model, PSA): -2.0 ± 0.63 kcal/mol
- ΔH [1, 10]: -3.0 ± 1.1 kcal/mol
- Kd ([1]; Kd, ITC, single-site model, 5 μM albumin, 150 μM ligand): ~1.4 µM and 1.4 µM
- Kd [6]: 5.4 ± 1.3 µM
- ΔH ([6]; ITC, single-site model, RSA): -4.5 ± 0.61 kcal/mol
- aqueous solubility cap ([7]; aqueous, under 37°C, stated as a fact, no reference printed for it): 100 µg/mL (≈ 364 µM)
- solubility in gel formulations ([7]; topical GML in gel formulations ref [3],[19]): up to 50 mg/ml
- AKT clustering (total AKT microclusters; 10 μg/ml GML alone): inhibits
- AKT clustering in GML treated cells (total AKT microclusters; 10 μg/ml GML with 1% HSA): relieves this inhibition

- Kd [1, 10]: 4.9 ± 1.1 µM
- ΔH [1, 10]: -24 kcal/mol and -24 ± 0.63 kcal/mol
- n (stoichiometry) ([1]; ITC, single-site model, ligand:HSA): 1.1 ± 0.4
Structure (SMILES): CCCCCCCCCCCC(=O)O [LA, Lauric acid]
